According to patent US20020183518A1, “Modulators of proteins with phosphotyrosine recognition units” (ONTOGEN CORPORATION, priority 1995, published 2002):

Tests used:
[1] = biological target: T1, PTP-1B (Homo sapiens, UniProt P18031); test: In vitro PTPase inhibition assay (pNPP, colorimetric), PTP-1B; assay type: biochemical; conditions: Table 9; read-out: IC50 values against PTP1B
T1 construct: known to encode a 321 amino acid fragment containing the PTP-1B catalytic domain and having PTPase activity; made in house; host or cells: E. coli DH5α, plasmid pGEX-3X-PTP-1B
T1 sequence (P18031 3-277 limits assumed): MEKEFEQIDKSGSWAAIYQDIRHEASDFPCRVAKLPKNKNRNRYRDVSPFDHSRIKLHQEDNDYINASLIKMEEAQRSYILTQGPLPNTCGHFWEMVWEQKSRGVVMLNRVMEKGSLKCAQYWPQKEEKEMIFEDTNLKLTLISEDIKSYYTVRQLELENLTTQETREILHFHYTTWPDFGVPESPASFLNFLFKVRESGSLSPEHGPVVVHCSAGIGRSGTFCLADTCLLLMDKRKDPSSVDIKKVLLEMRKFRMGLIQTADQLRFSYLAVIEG
Protocol: PTP-1B enzymatic activity of samples was assayed in microtiter plates as follows. The protein concentration of the PTP-1B enzyme preparation was determined using the Bio-Rad Protein Assay kit (Bio-Rad, Hercules Calif.). […] Reactions were mixed gently and incubated at 37° C. for 60 minutes. Enzymatic cleavage of phosphate from pNPP (a tyrosine phosphate analog) is marked by a colorimetric change in this substrate. See, e.g., Imbert et al., Biochem J., 297:163-173 (1994); Ghosh and Miller, Biochem. Biophys. Res. […] Zanke et al., Eur. J. […] To determine the enzymatic activity, absorbance readings of the reactions were measured at 405 nm using a Molecular Devices Thermomax Plate Reader (Menlo Park Calif.). […] Purified phosphatase was added to the reaction mixtures to begin the reactions; the reactions were incubated at 37° C. for 60 min. […] (for PTP-1C and PTPα assays), stopped, and colorimetrically analyzed as described above. […] First, absorbance readings from the negative control reactions were treated as a baseline and subtracted from the absorbance readings of the experimental reactions. Then, for each reaction, a percent inhibition was calculated using the following formula: […] For each inhibitor compound tested, an IC50 concentration was calculated from a best-fit computer analysis of the calculated percent inhibition for the various dilutions of the compound. PTP-1B enzymatic activity of samples was assayed in microtiter plates as follows. The protein concentration of the PTP-1B enzyme preparation was determined using the Bio-Rad Protein Assay kit (Bio-Rad, Hercules Calif.). […] Reactions were mixed gently and incubated at 37° C. for 60 minutes. Enzymatic cleavage of phosphate from pNPP (a tyrosine phosphate analog) is marked by a colorimetric change in this substrate. See, e.g., Imbert et al., Biochem J., 297:163-173 (1994); Ghosh and Miller, Biochem. Biophys. Res. […] Zanke et al., Eur. […] To determine the enzymatic activity, absorbance readings of the reactions were measured at 405 nm using a Molecular Devices Thermomax Plate Reader (Menlo Park Calif.). […] Purified phosphatase was added to the reaction mixtures to begin the reactions; the reactions were incubated at 37° C. for 60 min. […] (for PTP-1C and PTPα assays), stopped, and calorimetrically analyzed as described above. […] First, absorbance readings from the negative control reactions were treated as a baseline and subtracted from the absorbance readings of the experimental reactions. Then, for each reaction, a percent inhibition was calculated using the following formula: […] For each inhibitor compound tested, an IC50 concentration was calculated from a best-fit computer analysis of the calculated percent inhibition for the various dilutions of the compound.

[2] = biological target: T2, CD45 (Homo sapiens, UniProt P08575); test: In vitro PTPase inhibition assay (pNPP, colorimetric), CD45; assay type: biochemical; conditions: Table 9; read-out: IC50 values against CD45
T2 construct: The PCR reaction product (2127 bp) was digested with Sma I (New England Biolabs, Beverly Mass.) to yield a 2110 bp product; made in house; host or cells: E. coli DH5α, plasmid pET24C-CD45
T2 sequence (P08575 599-1306 limits assumed): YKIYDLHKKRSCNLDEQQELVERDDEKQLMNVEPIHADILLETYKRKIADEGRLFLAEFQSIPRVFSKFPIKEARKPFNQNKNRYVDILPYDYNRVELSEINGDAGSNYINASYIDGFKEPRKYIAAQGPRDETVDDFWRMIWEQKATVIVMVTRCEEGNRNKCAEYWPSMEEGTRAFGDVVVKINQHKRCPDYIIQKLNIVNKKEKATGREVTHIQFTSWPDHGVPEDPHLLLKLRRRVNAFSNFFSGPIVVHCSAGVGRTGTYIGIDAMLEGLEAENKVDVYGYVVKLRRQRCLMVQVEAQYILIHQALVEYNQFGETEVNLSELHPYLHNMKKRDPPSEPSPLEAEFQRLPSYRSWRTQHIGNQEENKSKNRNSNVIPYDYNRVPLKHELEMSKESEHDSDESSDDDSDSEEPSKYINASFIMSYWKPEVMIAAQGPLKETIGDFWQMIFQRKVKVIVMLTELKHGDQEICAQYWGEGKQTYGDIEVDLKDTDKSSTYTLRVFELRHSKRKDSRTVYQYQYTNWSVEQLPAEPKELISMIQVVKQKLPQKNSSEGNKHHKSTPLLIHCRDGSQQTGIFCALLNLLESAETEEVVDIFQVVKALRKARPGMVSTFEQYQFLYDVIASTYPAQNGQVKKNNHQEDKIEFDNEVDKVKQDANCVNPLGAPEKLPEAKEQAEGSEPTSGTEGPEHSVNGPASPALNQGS
Protocol: CD45 enzymatic activity of samples was assayed in microtiter plates as follows. […] Louis Mo.), and 80 ul of activity assay buffer (100 mM sodium acetate, pH 6.0, 1 mM EDTA, 0.1% Triton X-100, 15 mM bME). Reactions were mixed gently and incubated at 37° C. for 60 minutes. […] To determine the enzymatic activity, absorbance readings of the reactions were measured at 405 nm using a Molecular Devices Thermomax Plate Reader (Menlo Park Calif.). […] Purified phosphatase was added to the reaction mixtures to begin the reactions; the reactions were incubated at 37° C. for 60 min. […] (for PTP-1C and PTPα assays), stopped, and colorimetrically analyzed as described above. […] First, absorbance readings from the negative control reactions were treated as a baseline and subtracted from the absorbance readings of the experimental reactions. Then, for each reaction, a percent inhibition was calculated using the following formula: […] For each inhibitor compound tested, an IC50 concentration was calculated from a best-fit computer analysis of the calculated percent inhibition for the various dilutions of the compound. CD45 enzymatic activity of samples was assayed in microtiter plates as follows. […] Louis Mo.), and 80 ul of activity assay buffer (100 mM sodium acetate, pH 6.0, 1 mM EDTA, 0. 1% Triton X-100, 15 mM bME). Reactions were mixed gently and incubated at 37° C. for 60 minutes. […] To determine the enzymatic activity, absorbance readings of the reactions were measured at 405 nm using a Molecular Devices Thermomax Plate Reader (Menlo Park Calif.). […] Purified phosphatase was added to the reaction mixtures to begin the reactions; the reactions were incubated at 37° C. for 60 min. […] (for PTP-1C and PTPα assays), stopped, and calorimetrically analyzed as described above. […] First, absorbance readings from the negative control reactions were treated as a baseline and subtracted from the absorbance readings of the experimental reactions. Then, for each reaction, a percent inhibition was calculated using the following formula: […] For each inhibitor compound tested, an IC50 concentration was calculated from a best-fit computer analysis of the calculated percent inhibition for the various dilutions of the compound.

O=C(O)/C=C/c1ccc(C(=O)C(=O)c2ccc(/C=C/C(=O)O)cc2)cc1 [Compound 9] was tested, and the IC50 [1] was 370 nM and the IC50 [2] was 3900 nM.

With CCCCCCCCNC(=O)/C=C/c1ccc(C(=O)C(=O)c2ccc(/C=C/C(=O)O)cc2)cc1 [Compound 13] the IC50 [1] was 31000 nM.

O=C(O)/C=C/c1ccc(C(O)C(O)c2ccc(/C=C/C(=O)O)cc2)cc1 (stereo not shown) [Compound 23] was tested, and the IC50 [1] was 270 nM.

COc1ccc(C(=O)OC(c2ccc(/C=C/C(=O)O)cc2)C(O)c2ccc(/C=C/C(=O)O)cc2)cc1 (stereo not shown) [Compound 25] was tested, and the IC50 [1] was 890 nM.

Compound COc1ccc(C(=O)OC(C(=O)c2ccc(/C=C/C(=O)O)cc2)c2ccc(/C=C/C(=O)O)cc2)cc1 (stereo not shown) [Compound 27] has an IC50 [1] of 500 nM.

With COC(=O)CCCCC(=O)OC(c1ccc(/C=C/C(=O)O)cc1)C(O)c1ccc(/C=C/C(=O)O)cc1 (stereo not shown) [Compound 29] the IC50 [1] was 800 nM.

Compound CCCCCCC(OC(=O)c1ccc(/C=C/C(=O)O)cc1)C(=O)NCC(=O)OCC (stereo not shown) [Compound 32] has an IC50 [1] of 1800 nM.

O=C(O)/C=C/c1ccc(-c2nc(-c3ccc(C(=O)O)cc3)[nH]c2-c2ccc(/C=C/C(=O)O)cc2)cc1 [Compound 54] was tested, and the IC50 [1] was 72 nM and the IC50 [2] was 730 nM.

O=C(O)/C=C/c1ccc(-c2nc[nH]c2-c2ccc(/C=C/C(=O)O)cc2)cc1 [Compound 55] gave an IC50 [1] of 100 nM and an IC50 [2] of 560 nM.

O=C(O)/C=C/c1ccc(-c2nc(-c3ccccc3[N+](=O)[O-])[nH]c2-c2ccc(/C=C/C(=O)O)cc2)cc1 [Compound 57] showed an IC50 [1] of 250 nM and an IC50 [2] of 1000 nM.

With COc1ccc(-c2nc(-c3ccc(/C=C/C(=O)O)cc3)c(-c3ccc(/C=C/C(=O)O)cc3)[nH]2)cc1 [Compound 58] the IC50 [1] was 250 nM and the IC50 [2] was 970 nM.

COc1cccc(-c2nc(-c3ccc(/C=C/C(=O)O)cc3)c(-c3ccc(/C=C/C(=O)O)cc3)[nH]2)c1[N+](=O)[O-] [Compound 59] showed an IC50 [1] of 250 nM and an IC50 [2] of 350 nM.

O=C(O)/C=C/c1ccc(-c2nc(-c3ccco3)[nH]c2-c2ccc(/C=C/C(=O)O)cc2)cc1 [Compound 60] showed an IC50 [1] of 290 nM and an IC50 [2] of 1000 nM.

With O=C(O)/C=C/c1ccc(-c2nc(-c3cccc(F)c3)[nH]c2-c2ccc(/C=C/C(=O)O)cc2)cc1 [Compound 61] the IC50 [1] was 970 nM and the IC50 [2] was 955 nM.

Work on O=C(O)/C=C/c1ccc(-c2nc(-c3ccc4ccccc4n3)[nH]c2-c2ccc(/C=C/C(=O)O)cc2)cc1 [Compound 63] yielded an IC50 [1] of 1700 nM and an IC50 [2] of 2400 nM.

COC(=O)c1ccc2cc(-c3nc(-c4ccc(/C=C/C(=O)O)cc4)c(-c4ccc(/C=C/C(=O)O)cc4)[nH]3)[nH]c2c1 [Compound 64] gave an IC50 [1] of 3000 nM and an IC50 [2] of 6400 nM.

Work on O=C(O)/C=C/c1ccc(-c2nc(-c3cc(F)cc(F)c3)[nH]c2-c2ccc(/C=C/C(=O)O)cc2)cc1 [Compound 65] yielded an IC50 [1] of 1300 nM and an IC50 [2] of 1400 nM.

Work on O=C(O)/C=C/c1ccc(-c2nc(-c3ccc(F)c(F)c3)[nH]c2-c2ccc(/C=C/C(=O)O)cc2)cc1 [Compound 66] yielded an IC50 [1] of 1700 nM and an IC50 [2] of 2500 nM.

O=C(O)/C=C/c1ccc(-c2nc(-c3cccc(F)c3F)[nH]c2-c2ccc(/C=C/C(=O)O)cc2)cc1 [Compound 67] showed an IC50 [1] of 1000 nM and an IC50 [2] of 1250 nM.

Compound CCN(CC)c1ccc(-c2nc(-c3ccc(/C=C/C(=O)O)cc3)c(-c3ccc(/C=C/C(=O)O)cc3)[nH]2)cc1 [Compound 68] has an IC50 [1] of 300 nM and an IC50 [2] of 865 nM.

Work on COc1cccc(-c2nc(-c3ccc(/C=C/C(=O)O)cc3)c(-c3ccc(/C=C/C(=O)O)cc3)[nH]2)c1O [Compound 69] yielded an IC50 [1] of 410 nM and an IC50 [2] of 1900 nM.

In the case of O=C(O)/C=C/c1ccc(-c2nc(-c3cccs3)[nH]c2-c2ccc(/C=C/C(=O)O)cc2)cc1 [Compound 70], the IC50 [1] is reported as 420 nM and the IC50 [2] is reported as 1900 nM.

O=C(O)/C=C/c1ccc(-c2nc(-c3ccc4c(c3)OCCO4)[nH]c2-c2ccc(/C=C/C(=O)O)cc2)cc1 [Compound 71] was tested, and the IC50 [1] was 430 nM and the IC50 [2] was 530 nM.

For COc1cc(OC)c(OC)c(-c2nc(-c3ccc(/C=C/C(=O)O)cc3)c(-c3ccc(/C=C/C(=O)O)cc3)[nH]2)c1 [Compound 72], the IC50 [1] was 520 nM and the IC50 [2] was 5500 nM.

For N#Cc1ccc(-c2nc(-c3ccc(/C=C/C(=O)O)cc3)c(-c3ccc(/C=C/C(=O)O)cc3)[nH]2)cc1 [Compound 73], the IC50 [1] was 620 nM and the IC50 [2] was 2800 nM.

In the case of Cn1cc(-c2nc(-c3ccc(/C=C/C(=O)O)cc3)c(-c3ccc(/C=C/C(=O)O)cc3)[nH]2)c2ccccc21 [Compound 74], the IC50 [1] is reported as 640 nM and the IC50 [2] is reported as 4200 nM.

O=C(O)/C=C/c1ccc(-c2nc(-c3ccccc3)[nH]c2-c2ccc(/C=C/C(=O)O)cc2)cc1 [Compound 75] gave an IC50 [1] of 680 nM and an IC50 [2] of 3400 nM.

Work on CCCCNC(=O)C(OC(=O)c1ccc(/C=C/C(=O)O)cc1)C(=O)c1ccc(F)cc1 (stereo not shown) [Compound 144] yielded an IC50 [1] of 3000 nM.

CCCCNC(=O)c1oc(-c2ccc(/C=C/C(=O)O)cc2)nc1-c1ccc(F)cc1 [Compound 148] gave an IC50 [1] of 9000 nM.

COc1ccc(C(=O)OC(c2ccc(/C=C/C(=O)O)cc2)C(OC(=O)c2ccc(OC)cc2)c2ccc(/C=C/C(=O)O)cc2)cc1 (stereo not shown) [Compound 162] was tested, and the IC50 [1] was 1800 nM.

In the case of COc1ccc(-c2nc(-c3ccc(/C=C/C(=O)O)cc3)c(-c3ccc(/C=C/C(=O)O)cc3)s2)cc1 [Compound 168], the IC50 [1] is reported as 3000 nM.
